This note sets out measurements from article PMC10724293, “New ruthenium-xanthoxylin complex eliminates colorectal cancer stem cells by targeting the heat shock protein 90 chaperone” (Cell Death & Disease, 2023).

Data set [1] has as its system SCC-9. In words: Alamar blue cytotoxicity assay. Conditions: Homo sapiens, 72 h, read-out: IC50 and 95%CI. The class given is cell-based, human. The protocol:
(§1) The Alamar blue assay was used to determine cell viability as previously described. Cells were seeded into 96-well plates at a density of 7 × 10^3 cells per well for adherent cells or 3 × 10^4 cells per well for suspended cells. The drug was added to each well after 24 h of incubation for adherent cells or immediately for suspended cells and incubated for an additional 72 h. […] Each well received 100 µM resazurin (Sigma-Aldrich Co. St. Louis, MO, United States) four (for cell lines) or 24 (for primary culture) h before the end of the incubation. A SpectraMax 190 Microplate Reader (Molecular Devices, Sunnyvale, CA, USA) was used to measure absorbance at 570 and 600 nm.
A general note: Alamar Blue is a resazurin reagent that responds to reducing activity.

For data set [2], the system named is HSC-3. In words: Alamar blue cytotoxicity assay. Conditions: Homo sapiens, 72 h, read-out: IC50 and 95%CI. The class given is cell-based, human. The protocol: as §1
Data set [3] has as its system HepG2. The experiment in a line: Alamar blue cytotoxicity assay. The class given is cell-based, human. The note with it: Homo sapiens, 72 h, read-out: IC50 and 95%CI. The protocol:
as §1

The test system of data set [4] is PANC-1. In words: Alamar blue cytotoxicity assay. The class given is cell-based, human. Conditions: Homo sapiens, 72 h, read-out: IC50 and 95%CI. The protocol:
as §1

Data set [5] relates to KG-1a. In words: Alamar blue cytotoxicity assay. The note with it: Homo sapiens, 72 h, read-out: IC50 and 95%CI. The class given is cell-based, human. The protocol: as §1
Data set [6] has as its system HL-60. In words: Alamar blue cytotoxicity assay. The class given is cell-based, human. Conditions: Homo sapiens, 72 h, read-out: IC50 and 95%CI. The protocol: as §1
In data set [7] the test system is U-87 MG. In words: Alamar blue cytotoxicity assay. The class given is cell-based, human. The note with it: Homo sapiens, 72 h, read-out: IC50 and 95%CI. The protocol: as §1
The test system of data set [8] is MDA-MB-231. In words: Alamar blue cytotoxicity assay. The class given is cell-based, human. Conditions: Homo sapiens, 72 h, read-out: IC50 and 95%CI. The protocol:
as §1

For data set [9], the system named is CAL 27. In words: Alamar blue cytotoxicity assay. The class given is cell-based, human. The note with it: Homo sapiens, 72 h, read-out: IC50 and 95%CI. The protocol:
as §1

Data set [10] relates to A-375. The experiment in a line: Alamar blue cytotoxicity assay. The note with it: Homo sapiens, 72 h, read-out: IC50 and 95%CI. The class given is cell-based, human. The protocol: as §1
Data set [11] relates to A549. The experiment in a line: Alamar blue cytotoxicity assay. The class given is cell-based, human. Conditions: Homo sapiens, 72 h, read-out: IC50 and 95%CI. The protocol:
as §1

The subject of data set [12] is DU 145. In words: Alamar blue cytotoxicity assay. The class given is cell-based, human. Conditions: Homo sapiens, 72 h, read-out: IC50 and 95%CI. The protocol: as §1
Data set [13] concerns JUKART. The experiment in a line: Alamar blue cytotoxicity assay. The class given is cell-based, human. The note with it: Homo sapiens, 72 h, read-out: IC50 and 95%CI. The protocol:
as §1

Data set [14] relates to HCT116. The experiment in a line: Alamar blue cytotoxicity assay. The class given is cell-based, human. The note with it: Homo sapiens, HCT-116, 72 h, read-out: IC50 and 95%CI. The protocol: as §1
In data set [15] the test system is SCC4. In words: Alamar blue cytotoxicity assay. The class given is cell-based, human. Conditions: Homo sapiens, SCC-4, 72 h, read-out: IC50 and 95%CI. The protocol:
as §1

For data set [16], the system named is SCC-25. The experiment in a line: Alamar blue cytotoxicity assay. Conditions: Homo sapiens, 72 h, read-out: IC50 and 95%CI. The class given is cell-based, human. The protocol: as §1
For data set [17], the system named is K-562. In words: Alamar blue cytotoxicity assay. The class given is cell-based, human. Conditions: Homo sapiens, K562, 72 h, read-out: IC50 and 95%CI. The protocol: as §1
Data set [18] has as its system NB4. In words: Alamar blue cytotoxicity assay. The class given is cell-based, human. Conditions: Homo sapiens, NB-4, 72 h, read-out: IC50 and 95%CI. The protocol:
as §1

Data set [19] has as its system H1299. The experiment in a line: Alamar blue cytotoxicity assay. The class given is cell-based, human. The note with it: Homo sapiens, NCI-H1299, 72 h, read-out: IC50 and 95%CI. The protocol:
as §1

In data set [20] the test system is THP-1. The experiment in a line: Alamar blue cytotoxicity assay. The class given is cell-based, human. The note with it: Homo sapiens, 72 h, read-out: IC50 and 95%CI. The protocol:
as §1

The conditions of data set [21]: RXC 2 mg/kg, DOX 0.8 mg/kg.
From the text: To evaluate toxicological features, all animals were weighed at the beginning and end of the experiment. Throughout the experiment, the animals were monitored for abnormalities. An Advia 60 hematology system was used to perform hematological analyses (Bayer, Leverkusen, Germany). The livers, kidneys, lungs, and hearts were removed, weighed, and examined for color change, gross lesion formation, and/or hemorrhaging before being fixed in 4% formaldehyde, dehydrated in a graded alcohol series, washed in xylene, and embedded in paraffin wax. The tissue was cut into 5 μm thick slices, stained with hematoxylin-eosin and/or periodic acid-Schiff (liver and kidney), and examined histologically under optical microscopy.
Data set [22] relates to HCT116 cells. The experiment in a line: Cell cycle distribution and internucleosomal DNA fragmentation by flow cytometry. The class given is cell-based, human. The note with it: 1 µM, positive control. The protocol:
For quantification of internucleosomal DNA fragmentation and cell cycle distribution, the cells were stained with PI using a solution containing 0.1% Triton X-100, 2 µg/ml PI, 0.1% sodium citrate, and 100 µg/ml RNAse (all from Sigma-Aldrich) and incubated in the dark for 15 min at room temperature. Finally, cell fluorescence was measured using flow cytometry.
For all flow cytometry analyses, cell fluorescence was measured with a BD LSRFortessa cytometer and analyzed by BD FACSDiva Software (BD Biosciences) and FlowJo Software 10 (FlowJo LLC; Ashland, OR, USA). At least 10,000 events were evaluated per sample for intracellular staining, and at least 30,000 events were acquired per sample for cell surface protein staining. FSC-A versus FCS-H and SCC-A versus SCC-H were used to remove the doublets. The analysis excluded cellular debris.
(A flow cytometer gives signals particle by particle.)

Data set [23] deals with HCT116 cells. The experiment in a line: CRC tumor growth xenograft model. Conditions: RXC 2 mg/kg, DOX 0.8 mg/kg, i.p. once a day for 2 weeks. The class given is in vivo, C. B-17 SCID mice. The protocol: HCT116 cells (10^7 cells/500 μl) were inoculated subcutaneously into the left front armpit of mice, as previously reported. The animals were then treated intraperitoneally (200 μl/animal) once a day for 2 weeks. […] The animals were euthanized with an anesthetic overdose (thiopental, 100 mg/kg) 1 day after treatment ended, and tumors were excised, weighed, and processed for histological analysis. The inhibition ratio (percent) was calculated as follows: inhibition ratio (percent) = [(A − B)/A] × 100, where A is the average tumor weight of the negative control and B is the treated group.

The subject of data set [24] is CR01 (colorectal carcinoma). The experiment in a line: Alamar blue viability of primary cancer cells. The class given is cell-based, human. Conditions: primary CRC (first listed); 25 μg/ml (RXC 31.3 μM, DOX 46 μM); 96 h. The protocol: as §1
(§2) CR03 (metastatic cholangiocarcinoma) CR04 (malignant papillary mesothelioma) […]
(§3) Figure S1. […] Cells were exposed to 25 […]
(§4) measured after 96 h using the Alamar blue assay. The data are presented as the […]
(§5) mean ± S.E.M. of four replicates. * P < 0.05 compared to CTL by one-way ANOVA […]
(§6) followed by Dunnett's multiple comparisons test. […]

Data set [25] relates to CR03 (metastatic cholangiocarcinoma). In words: Alamar blue viability of primary cancer cells. The class given is cell-based, human. Conditions: 25 μg/ml (RXC 31.3 μM, DOX 46 μM), 96 h. The protocol: as §1, §2, §3, §4, §5, §6
Data set [26] deals with CR04 (malignant papillary mesothelioma). In words: Alamar blue viability of primary cancer cells. The class given is cell-based, human. The note with it: primary papilliferous malignant mesothelioma; 25 μg/ml (RXC 31.3 μM, DOX 46 μM); 96 h. The protocol: as §1, §2, §3, §4, §5, §6
In data set [27] the test system is 4T1. In words: Alamar blue cytotoxicity assay. The class given is cell-based, mouse. Conditions: Mus musculus, 72 h, read-out: IC50 and 95%CI. The protocol:
as §1

Data set [28] has as its system B16-F10. The experiment in a line: Alamar blue cytotoxicity assay. The class given is cell-based, mouse. Conditions: Mus musculus, 72 h, read-out: IC50 and 95%CI. The protocol:
as §1

In data set [29] the test system is BJ. The experiment in a line: Alamar blue cytotoxicity assay, noncancerous cells. Conditions: Homo sapiens, 72 h, read-out: IC50 and 95%CI. The class given is cell-based, human. The protocol: as §1
The test system of data set [30] is MRC-5. In words: Alamar blue cytotoxicity assay, noncancerous cells. The class given is cell-based, human. Conditions: Homo sapiens, MRC5, MRC-5 noncancerous cells, 72 h, read-out: IC50 and 95%CI. The protocol: as §1
For data set [31], the system named is PBMC. In words: Alamar blue cytotoxicity assay, noncancerous cells. The class given is cell-based, human. Conditions: Homo sapiens, 72 h, read-out: IC50 and 95%CI. The protocol: as §1
Data set [32] has as its system HCT116 cells. In words: Functional cell death assay with inhibitors/activator. The note with it: then 10 µM RXC for 48 h; for effect of autophagy inhibitor on RXC-induced cell death: pretreated with 50 µM CQ or 5 mM 3-MA, annexin V-FITC/PI. The class given is cell-based, human. An excerpt: (§7) For apoptosis detection or functional assays, cell viability was quantified using annexin V-FITC/PI (FITC Annexin V Apoptosis Detection Kit I, BD Biosciences, San Jose, CA, USA) or YO-PRO-1/PI (Sigma-Aldrich Co.). The following inhibitors were used: chloroquine (autophagy inhibitor, Ipca Laboratories, Mumbai, MH, India); 3-methyladenine (autophagy inhibitor, Sigma-Aldrich Co.); and lithium chloride (Wnt activator, Sigma-Aldrich Co.).

In data set [33] the test system is BAD KO SV40 MEF. In words: Alamar blue survival curves and cell death. The class given is cell-based, mouse. Conditions: Mus musculus; BAD KO SV40 MEF; Alamar blue, 72 h. The protocol:
as §1, §7

For data set [34], the system named is WT SV40 MEF. In words: Alamar blue survival curves. The class given is cell-based. The note with it: Mus musculus, 72 h. The protocol:
as §1

pIC50: −log10 of the molar value.

As for `COc1cccc2c1C(=O)c1c(O)c3c(c(O)c1C2=O)C[C@@](O)(C(=O)CO)C[C@@H]3O[C@H]1C[C@H](N)[C@H](O)[C@H](C)O1` [DOX, Doxorubicin, reference compound], the negative logarithm of the IC50 (pIC50) (usually the negative decadic logarithm of the IC50, by convention in mol/L) in [1] is 5.92; in data set [2], 5.84; in data set [3] it was 7.05; in data set [4], 5.97; in [5] it was 6.40; in data set [6], 7.05. Also, the pIC50 in data set [7] is 6.36; in data set [8], 6.26; in data set [9], 6.74; in data set [10] it was 6.80; in data set [11], 5.63; in data set [12], 6.66. Also, the pIC50 in [13] was 7.52; in [14] it was 5.48; in data set [15], 7.15; in data set [16], 5.80; in data set [17] it was 5.82; in [18], 6.96. The pIC50 in [19] was 6.11; in data set [20], 6.92; in data set [27], 5.77; in data set [28], 6.28; in [29] it was 6.14; in data set [30], 5.79. Besides, the pIC50 in data set [31] was 5.89. Moreover, in [21] (i.p. once a day for 2 weeks), the hematological analysis result is “Decreases in erythrocytes, hemoglobin, hematocrit, MCV and leukocytes”. Moreover, in data set [21] (i.p. once a day for 2 weeks, n = 15 per group), the “animals died during the treatment” value is on record as “four”. In addition, the body weight entry in [21] (i.p. once a day for 2 weeks, p < 0.05) is “decrease in body weight”. The liver histology entry in [21] (mainly in treated animals) is listed as “focal areas of hepatocyte coagulation necrosis”. The kidney histology result in data set [21] (more evident than in control) was “focal areas of coagulation necrosis of the renal cortex tubules”. Further, the cell cycle effect entry in [22] was “G2/M arrest”. Moreover, the tumor mass inhibition in [23] came out at 46.7%. For the same molecule, the reduced cell viability is listed as 71.0% in [24], 65.6% in [25] and 64.3% in [26].

For `[Cl-].[Li+]` [lithium chloride], in data set [32] (pretreated with 25 mM LiCl, YO-PRO-1/PI), the “effect of Wnt activator on RXC-induced cell death” value is “ineffective in preventing RXC-induced cell death”.

Regarding `O=c1[nH]cc(F)c(=O)[nH]1` [5-FU, 5-fluorouracil, reference compound], the pIC50 in data set [33] was 4.59; in [34], 5.00.

Regarding `Cn1cnc(N)c2ncnc1-2` [3-MA, 3-methyladenine], in [32], the “effect of autophagy inhibitor on RXC-induced cell death” value was “enhanced RXC-induced cell death”.

For the molecule `CCN(CC)CCCC(C)Nc1ccnc2cc(Cl)ccc12` (stereo not shown) [CQ, chloroquine], the “effect of autophagy inhibitor on RXC-induced cell death” value in data set [32] is “enhanced RXC-induced cell death”.
